We go through 12 compounds from patent US9623123B2, “Fluorescent conjugated polymers with a bodipy-based backbone and uses thereof” (Michigan Technological University, priority 2008, dated 2017).

SMILES strings stand for the structures.

Data set [1] is described as follows: Fluorescence lifetime measurement. It counts as physicochemical. The method, then: (§1) ^1H NMR and ^13C NMR spectra were taken on a 400 MHz Varian Unity Inova spectrophotometer instrument. ^1H and ^13C NMR spectra were recorded in CDCl3, and chemical shifts (5) are given in ppm relative to solvent peaks (at 7.24 ppm for ^1H spectra and at 77.3 for ^13C spectra) as internal standard. UV spectra were taken on a Hewlett-Packard 8452A Diode Array UV-visible spectrophotometer. Fluorescence spectra were recorded on a Spex Fluorolog 1681 0.22 m steady-state fluorometer. Fluorescence quantum yields of BODIPY dyes and polymers were measured in methylene chloride and calculated by using fluorescein excited at 490 nm in 0.1 N NaOH as the reference (its quantum efficiency of 85%). Fluorescence lifetimes were measured on a GL-3300 Nitrogen Laser laserstrobe PTI instrument and analyzed using FeliX32 software.
^1H NMR and ^13C NMR spectra were taken on a 400 MHz Varian Unity Inova spectrophotometer instrument. ^1H and ^13C NMR spectra were recorded in CDCl3, and chemical shifts (δ) are given in ppm relative to solvent peaks (^1H, δ 7.26; ^13C, δ 77.3) as internal standard. UV spectra were taken on a Hewlett-Packard 8452A Diode Array UV-visible spectrophotometer. Fluorescence spectra were recorded on a Spex Fluorolog 1681 0.22 m steady-state fluorometer. Fluorescence quantum yields of BODIPY dyes and polymers were measured in methylene chloride and calculated by using fluorescein exCIted at 490 nm in 0.1 N NaOH as the reference (quantum effiCIency, cPn=85%). Fluorescence lifetimes were measured on a 010-3300 Nitrogen Laser laserstrobe PTI instrument and analyzed using FeliX32 software. Molecular weights of the polymers were determined by gel permeation chromatography (OPC) by using a Waters AssoCIates model 6000A liquid chromatograph. Three American Polymer Standards Corp. ultrastyragel columns in series with porosity indices of 103, 104, and 105 A were used and housed in an oven thermostatted at 30° C. The mobile phase was HPLC grade THF which was filtered and degassed by vacuum filtration through a 0.5, urn fluoropore filter prior to use. The polymers were detected by a Waters Model 440 ultraviolet absorbance detector at a wavelength of 254 nm and a Waters Model 2410 refractive index detector. Molecular weights were determined relative to polystyrene standards.

A short description of data set [2]: UV-visible absorption and fluorescence spectra, fluorescence quantum yields in solution. The conditions noted are these: for Quantum yield: methylene chloride solution. It counts as physicochemical. How it is done:
^1H NMR and ^13C NMR spectra were taken on a 400 MHz Varian Unity Inova spectrophotometer instrument. ^1H and ^13C NMR spectra were recorded in CDCl3, chemical shifts (δ) are given in ppm relative to solvent peaks (1H: δ 7.26; 13C: δ 77.3) as internal standard. UV spectra were taken on a Hewlett Packard 8452A Diode Array UV-visible spectrophotometer. Fluorescence spectra were recorded on a Spex Fluorolog 1681 0.22 m steady-state fluorometer. Fluorescence quantum yields of BODIPY dyes and polymers were measured in methylene chloride and DMF, and calculated by using fluorescein excited at 490 nm in 0.1 N NaOH as the reference absolute quantum efficiency (φn=85%). Molecular weights of the polymers were determined by gel permeation chromatography (“GPC”) by using a Waters Associates Model 6000A liquid chromatograph. Three American Polymer Standards Corp. Ultrastyragel columns in series with porosity indices of 10^3, 10^4, and 10^5 Å were used and housed in an oven thermostated at 30° C. Mobile phase was HPLC grade THF which was filtered and degassed by vacuum filtration through a 0.5 μm fluoropore filter prior to use. The polymers were detected by a Waters Model 440 ultraviolet absorbance detector at a wavelength of 254 nm and a Waters Model 2410 refractive index detector. Molecular weights were measured relative to polystyrene standards. An Enraf Nonius CAD-4 X-Ray diffractometer was used in the crystal structure determination. The windows program WinGX was used as the interface for the solution and refinement of the model. The data were first reduced and corrected for absorption using the psi-scans, and then solved using the program SIR2004. The model was refined using SHELXL97.
as §1
^1H NMR and ^13C NMR spectra were taken on a 400 MHz Varian Unity Inova spectrophotometer instrument. ^1H and ^13C NMR spectra were recorded in CDCl3, chemical shifts (δ) are given in ppm relative to solvent peaks (^1H: δ 7.26; ^13C: δ 77.3) as internal standard. UV spectra were taken on a Hewlett Packard 8452A Diode Array UV-visible spectrophotometer. Fluorescence spectra were recorded on a Spex Fluorolog 1681 0.22 m steady-state fluorometer. Fluorescence quantum yields of BODIPY dyes and polymers were measured in methylene chloride and DMF, and calculated by using fluorescein excited at 490 nm in 0.1 N NaOH as the reference quantum efficiency (φn=85%).^30,31 Molecular weights of the polymers were determined by gel permeation chromatography (GPC) by using a Waters Associates Model 6000A liquid chromatograph. Three American Polymer Standards Corp. Ultrastyragel columns in series with porosity indices of 10^3, 10^4, and 10^5 Å were used and housed in an oven thermostated at 30° C. Mobile phase was HPLC grade THF which was filtered and degassed by vacuum filtration through a 0.5 μm fluoropore filter prior to use. The polymers were detected by a Waters Model 440 ultraviolet absorbance detector at a wavelength of 254 nm and a Waters Model 2410 refractive index detector. Molecular weights were measured relative to polystyrene standards. […]

[3] abbreviates: methylene chloride solution (Table 9, Example 13).
Setting [4] is: methylene chloride solution (Table 10, Example 14).
[5] abbreviates: fluorescein standard (Table 10, Example 14).
Where [6] appears, read: fluorescein standard (Table 9, Example 13).

Consider `CCCCCCCCCCCCOc1ccc(C2=C3C(C)=C(C#C[Si](C)(C)C)C(C)=[N+]3[B-](F)(F)n3c(C)c(C#C[Si](C)(C)C)c(C)c32)cc1OCCCCCCCCCCCC` [Compound 5b], for which the values for the Fluorescence lifetime in data set [1] (setting [3]) and in data set [1] (setting [4]) were 4.6 ns and 5.2 ns, respectively. Also, the Absorption maxima in data set [2] (setting [3]) turned out to be 555 nm; in data set [2] (setting [4]) it was 554 nm. Moreover, in data set [2] (setting [3]), the Stokes shift is recorded as 15 nm. Moreover, in data set [2] (setting [4]), the Emission maxima worked out at 570 nm. The same compound yielded a Quantum yield in data set [2] (setting [5]) of 79%.
As for `CCCCCCCCCCCCOc1ccc(C2=C3C(C)=C(I)C(C)=[N+]3[B-](F)(F)n3c(C)c(I)c(C)c32)cc1OCCCCCCCCCCCC` [Compound 4b], the values for the Fluorescence lifetime in data set [1] (setting [3]) and in data set [1] (setting [4]) were 0.15 ns and 0.08 ns, respectively. For the same compound, the Absorption maxima in data set [2] (setting [3]) and in data set [2] (setting [4]) was 534 nm each time. Besides, the Emission maxima in data set [2] (setting [3]) and in data set [2] (setting [4]) was 549 nm throughout. Further, in data set [2] (setting [3]), the Stokes shift is 15 nm. Also, the Quantum yield is 2.7% in data set [2] (setting [6]) and 5.8% in data set [2] (setting [5]).
Turning to `C#CC1=C(C)C2=C(c3cc(OCCCCCCCCCCCC)c(OCCCCCCCCCCCC)c(OCCCCCCCCCCCC)c3)c3c(C)c(C#C)c(C)n3[B-](F)(F)[N+]2=C1C` [Compound 6c], the Fluorescence lifetime in data set [1] (setting [3]) came to 3.0 ns. Besides, in data set [2] (setting [3]), the Absorption maxima was determined as 541 nm, the Emission maxima was determined as 553 nm and the Stokes shift is given as 12 nm.
`CCCCCCCCCCCCOc1cc(C2=C3C(C)=C(C#C[Si](C)(C)C)C(C)=[N+]3[B-](F)(F)n3c(C)c(C#C[Si](C)(C)C)c(C)c32)cc(OCCCCCCCCCCCC)c1OCCCCCCCCCCCC` [Compound 5c] returned a Fluorescence lifetime in data set [1] (setting [3]) of 4.4 ns. Moreover, in data set [2] (setting [3]), the Absorption maxima was 556 nm, the Emission maxima turned out to be 570 nm and the Stokes shift was 14 nm.
The compound `CCCCCCCCCCCCOc1ccc(C2=C3C(C)=CC(C)=[N+]3[B-](F)(F)n3c(C)cc(C)c32)cc1OCCCCCCCCCCCC` [Compound 3b] gave a Fluorescence lifetime in data set [1] (setting [3]) of 4.1 ns. This compound registered a Fluorescence lifetime in data set [1] (setting [4]) of 4.1 ns. In data set [2] (setting [3]), the Absorption maxima was 502 nm, the Emission maxima came out at 510 nm and the Stokes shift stood at 8 nm. In data set [2] (setting [4]), this compound showed an Absorption maxima of 502 nm and an Emission maxima of 511 nm. The same compound displayed a Quantum yield in data set [2] (setting [5]) of 81%.
With `CCCCCCCCCCCCOc1cc(C2=C3C(C)=C(I)C(C)=[N+]3[B-](F)(F)n3c(C)c(I)c(C)c32)cc(OCCCCCCCCCCCC)c1OCCCCCCCCCCCC` [Compound 4c], the Fluorescence lifetime in data set [1] (setting [3]) was 0.19 ns. Moreover, in data set [2] (setting [3]), the Absorption maxima is on record as 535 nm, the Emission maxima came out at 550 nm and the Stokes shift stood at 15 nm. The same compound returned a Quantum yield in data set [2] (setting [6]) of 2.3%.
Consider `C#CC1=C(C)C2=C(c3ccc(OCCCCCCCCCCCC)cc3)c3c(C)c(C#C)c(C)n3[B-](F)(F)[N+]2=C1C` [Compound 6a], for which the Fluorescence lifetime in data set [1] (setting [3]) amounted to 3.6 ns; in data set [1] (setting [4]) it was 4.2 ns. Further, the figures for the Absorption maxima in data set [2] (setting [3]) and in data set [2] (setting [4]) were 539 nm and 538 nm, respectively. The Emission maxima is recorded as 551 nm in data set [2] (setting [3]) and 552 nm in data set [2] (setting [4]). The Stokes shift in data set [2] (setting [3]) amounted to 12 nm. This compound registered a Quantum yield in data set [2] (setting [5]) of 63%.
On to `CCCCCCCCCCCCOc1cc(C2=C3C(C)=CC(C)=[N+]3[B-](F)(F)n3c(C)cc(C)c32)cc(OCCCCCCCCCCCC)c1OCCCCCCCCCCCC` [Compound 3c], for which the Fluorescence lifetime in data set [1] (setting [3]) came out at 3.2 ns. In data set [2] (setting [3]), the Absorption maxima is listed as 503 nm, the Emission maxima was found to be 511 nm and the Stokes shift came to 9 nm.
`CCCCCCCCCCCCOc1ccc(C2=C3C(C)=C(C#C[Si](C)(C)C)C(C)=[N+]3[B-](F)(F)n3c(C)c(C#C[Si](C)(C)C)c(C)c32)cc1` [Compound 5a]: the Fluorescence lifetime in data set [1] (setting [3]) amounted to 4.4 ns. Further, in data set [1] (setting [4]), the Fluorescence lifetime is on record as 4.5 ns. In data set [2] (setting [3]), the Absorption maxima is given as 554 nm, the Emission maxima came out at 569 nm and the Stokes shift turned out to be 15 nm. Moreover, in data set [2] (setting [4]), the Absorption maxima is reported as 553 nm and the Emission maxima amounted to 569 nm. The Quantum yield in data set [2] (setting [5]) worked out at 71%.
`C#CC1=C(C)C2=C(c3ccc(OCCCCCCCCCCCC)c(OCCCCCCCCCCCC)c3)c3c(C)c(C#C)c(C)n3[B-](F)(F)[N+]2=C1C` [Compound 6b] yielded a Fluorescence lifetime in data set [1] (setting [3]) of 3.9 ns. For the same compound, the Fluorescence lifetime in data set [1] (setting [4]) amounted to 5.9 ns. Besides, in data set [2] (setting [3]), the Absorption maxima is reported as 540 nm, the Emission maxima is recorded as 5.52 nm and the Stokes shift was 12 nm. In data set [2] (setting [4]), this compound yielded an Absorption maxima of 539 nm and an Emission maxima of 553 nm. Besides, in data set [2] (setting [5]), the Quantum yield was found to be 67%.
In the case of `CCCCCCCCCCCCOc1ccc(C2=C3C(C)=CC(C)=[N+]3[B-](F)(F)n3c(C)cc(C)c32)cc1` [Compound 3a], the Fluorescence lifetime in data set [1] (setting [3]) is listed as 3.9 ns; in data set [1] (setting [4]) it was 3.8 ns. In addition, the Absorption maxima in data set [2] (setting [3]) and in data set [2] (setting [4]) was 501 nm throughout. Moreover, the Emission maxima in data set [2] (setting [3]) was determined as 509 nm; in data set [2] (setting [4]), 510 nm. In data set [2] (setting [3]), the Stokes shift is recorded as 8 nm. In data set [2] (setting [5]), this compound had a Quantum yield of 76%.
For `CCCCCCCCCCCCOc1ccc(C2=C3C(C)=C(I)C(C)=[N+]3[B-](F)(F)n3c(C)c(I)c(C)c32)cc1` [Compound 4a], the figures for the Fluorescence lifetime in data set [1] (setting [3]) and in data set [1] (setting [4]) were 0.21 ns and 0.13 ns, respectively. Moreover, the Absorption maxima in data set [2] (setting [3]) and in data set [2] (setting [4]) was 533 nm in each case. Also, the Emission maxima in data set [2] (setting [3]) and in data set [2] (setting [4]) was 548 nm in each case. For the same compound, the Stokes shift in data set [2] (setting [3]) was 15 nm. For the same compound, the Quantum yield came out at 2.3% in data set [2] (setting [6]) and 5.8% in data set [2] (setting [5]).
